Laboratory results: patent US20160038474A1, “COMPOSITIONS AND METHODS FOR THE MODULATION OF HEMOGLOBIN (S)” (GLOBAL BLOOD THERAPEUTICS, INC., priority 2013, published 2016)
Where two headings read alike, the source gives them in different places.

What was measured:
washed red blood cells = assay: Reverse Hemox assay (OEC), washed red blood cells; format: cell-based, human
Experimental: (§1) Oxygen Equilibrium Curves (OEC) of whole blood before and after treatment with different concentrations of compounds 12, 22 and 23 were performed as follows using a HEMOX analyzer (TCS Scientific, New Hope, Pa.). Blood samples from homozygous sickle cell patients were obtained though the Hemoglobinopathy Center at Children's Hospital Oakland Research Institute (CHORI) with Institutional Review Board approval. The hematocrit was adjusted to 20% using autologous plasma and the blood samples were incubated for 1 hour at 37° C. in absence or presence of compounds. 100 μl of these samples were added to 5 mL of Hemox butter (30 mM TES, 130 mM NaCl, 5 mM KCl, pH=7.4) at 37° C. and then transferred to the Hemox sample chamber. The samples were saturated with oxygen by flushing with compressed air for 10 minutes. The samples were then flushed with pure nitrogen and the respective absorbances of oxy- and deoxy-Hb are recorded as a function of the solution pO2. The oxygen equilibrium data were then fitted to the Hill Model to obtain values for p50. The deoxygenation curves for both whole blood alone (control) and whole blood in the presence of the compound were collected with the TCS software.
(§2) Reverse hemox assay was performed essentially as described in Example 2, above, using either washed red blood cells or whole blood.
Results: Table 4, below, indicates the percent change in p50 (delta p50%) for each compound tested. In the washed red blood cells (RBCs), 5-HMF, compound 5, and compound 12 (1 mM compound) gave p50 of 20, 9 and 7 mm Hg, respectively, compared to the control red blood cells (delta p50=30 mm Hg). To determine the effects of plasma proteins on compound activity. OECs were measured in whole blood from sickle cell disease patients. 5-HMF, compound 5, compound 9, and compound 12 gave p50 of 27, 18, 11 and 6 mm Hg, respectively, compared to the control blood p50 of 30 mm Hg.

HbS [1] = target: T1, HbS (Homo sapiens, UniProt P68871+P69905, E7V); assay: 96-well oxygen dissociation assay (ODA); format: biochemical; conditions: [Hb] 3 μM; [cmp] 1 μM
[2] = target: T2, whole blood from homozygous sickle cell patients, Hb(S) (Homo sapiens, UniProt P68871+P69905, E7V); assay: Reverse Hemox assay (oxygen equilibrium curves), whole blood; format: cell-based; conditions: for Whole Blood OEC (delta p50%): [Hb] 1 mM; for p50: whole blood from sickle cell disease patients, control blood p50 30 mm Hg; for Reverse Hemox delta p50% (class) / Reverse Hemox delta p50%: 1 mM compound, whole blood, hematocrit 20%; for Reverse Hemox delta p50%: 1 hour 37° C.
T2 construct: Oxygen Equilibrium Curves (OEC) of whole blood before and after treatment; from tissue; host or cells: whole blood (or washed red blood cells) of homozygous sickle cell patients
Experimental: as §1
Results: Table 3 below lists the delta p50% values where “+” indicates a delta p50% of between 0 and 29, “++” indicates a delta p50% of between 30 and 50, and “+++” indicates a delta p50% of 50 or greater.
as §2

[3] = system: sickle cell disease patient whole blood (ssRBCs); assay: Viscosity assay, hypoxic sickle cell blood; format: cell-based, human; conditions: [Hb] 1.5 mM, two hours of hypoxia
Experimental: Sickle cell disease patients develop anemia as a means for the circulatory system to compensate for increase in blood viscosity caused by the non-deformable sickle cell red blood cells (ssRBCs). The effects of 5-HMF, compound 5, compound 9, or compound 12 were tested on sickle cell disease patient blood rheology to determine if these compounds decrease the viscosity of ssRBCs that have undergone hypoxia. Using blood from patients with sickle cell disease, whole blood (30% hematocrit, ˜1.5 mM Hb) was incubated with 5-HMF, compound 5, compound 9, or compound 12 during exposure to two hours of hypoxia (2.4% 02). A cone-plate viscometer was used to measure the viscosity at shear rates ranging from 60 s^−1 to 415 s^−1.

HbS [4] = target: T1, HbS; assay: 96-well oxygen dissociation assay (ODA); format: biochemical; conditions: for potency at increasing the oxygen affinity of HbS compared with 5-HMF: 96-well ODA; for Hb in ODA (Δoxy state): [Hb] 3 μM, [cmp] 3 μM
Source text: Results: Table 4 below lists the change in oxygen affinity (Δoxy state). After two hours of passive deoxygenation, compound 12, at an equimolar concentration to Hb, increased the Hb oxygen affinity by 6-fold.

HbS/A = target: T3, HbS/A (Homo sapiens, UniProt P68871+P69905, E7V); assay: R/T assay (relaxed-to-tense transition); format: biochemical; conditions: HbS/A 3 μM
T3 construct: A mixture of HbS/A was purified from blood obtained from homozygous sickle cell patients; from tissue; host or cells: blood of homozygous sickle cell patients
Experimental: This ability can be expressed as a “delta R” value (i.e., the change in the time-period of the R state after hemoglobin is treated with a compound, as compared to the period without treatment with the compound). Delta R is the % R to remaining after the compounds treatment compared with no treatment (e.g., if R % without treatment is 8% while with treatment with a target compound is 48% R at 30 μM, then % R is 40% for that compound.
A mixture of HbS/A was purified from blood obtained from homozygous sickle cell patients though the Hemoglobinopathy Center at Children's Hospital Oakland Research Institute (CHORI) with Institutional Review Board approval. HbS/A (at a final concentration of 3 μM) was incubated for 1 hr at 37° C. in presence or absence of compounds in […] potassium phosphate buffer, pH=7.4 and 30 μM 2,3 diphosphoglycerate (DPG) in 96 well plates in a final volume of 160 μl. Compounds were added at different concentrations (3 μM to 100 μM final concentrations). Plates were covered with a Mylar film. After incubation was completed the Mylar cover was removed and the plates were placed in a Spectrostar Nano plate reader previously heated at 37° C. Five minutes later, N2 (flow rate=20 L/min) was flowed through the spectrophotometer. Spectroscopic measurements (300 nm to 700 nm) were taken every 5 min for 2 hours. Data analysis was performed by using linear regression from the data retrieved for all wavelengths.

[5] = Rat pharmacokinetics and blood/plasma partitioning (Example 1); format: in vivo, Rats (Sprague-Dawley); conditions: for level of compound in blood versus plasma, overall exposure / relative proportion in blood (as compared to plasma) at peak concentration (Cmax): dosed orally; for Vd / bioavailability / clearance / blood plasma ratio: male, Sprague-Dawley; for Vd / bioavailability: in vivo; for Vd / clearance: oral 10 mg/kg or intravenous 1 mg/kg; for Vd: read-out: Vss; for bioavailability: oral 10 mg/kg, intravenous 1 mg/kg; for clearance: plasma; for blood plasma ratio: whole blood and plasma, oral, 10 mg/kg
Experimental: This experiment was established and used in order to assess the pharmacokinetic (PK) properties of the compounds.
Sample collection and data analysis: Rats (Sprague-Dawley, male, 8-12[…] weeks old) were dosed with one of three compounds corresponding to compound 12, compound 22 or compound 23. The rats received oral (10 mg/kg) or intravenous (1 mg/kg) doses of the compound. Rats were fasted overnight before the experiments and provided with food after the 2 hour sampling time point.
Blood samples were collected at different time points. Blood was anti-coagulated by 3.2% TSC (trisodium citrate) and a portion was separated into plasma fraction by centrifugation and removal of blood cells. Plasma and lysed blood samples were anal) zed for drug concentration using LC-MS/MS. PK parameters were calculated by non compartmental analysis of the concentration-time profiles using WinNonLin software (Pharsight, Mountain View, Calif.). Apparent elimination half-life (t1/2) values were calculated as ln(2)/k. Area under the concentration-time curve (AUC) values were estimated using the linear trapezoidal method. AUClast values were calculated from the dosing time to the last measurable concentration. AUCinf values were calculated as the sum of the corresponding AUClast and the ratio of the last detectable concentration divided by k. Plasma clearance (Cl) is calculated from Dose/AUCinf. Volume of distribution at steady state (Vss) is calculated from Mean Residence Timeinf×Clss. Maximum concentration (Cmax) and time to Cmax (Tmax) was recorded as observed. The blood/plasma partitioning ratio was calculated at each experimental time point.

purified HbS = target: T4, purified HbS (Homo sapiens, UniProt P68871+P69905, E7V); assay: HbS polymerization assay; format: biochemical; conditions: 75 μM compound; 50 μM HbS
T4 construct: HbS is purified by the CRO VIRUSYS, from blood obtained from homozygous sickle cell patients; tissue VIRUSYS (CRO that did the purification); host or cells: blood of homozygous sickle cell patients
Experimental: Polymerization assays are carried out in vitro using purified HbS exchanged into 1.8 M potassium phosphate buffer at pH 7.4. Using a slightly modified protocol (Antonini and Brunori, 1971). HbS is purified by the CRO VIRUSYS, from blood obtained from homozygous sickle cell patients through the Hemoglobinopathy Center at Children's Hospital Oakland Research Institute (CHORI) with Institutional Review Board approval. Compounds are prepared in 100% DMSO and a desired amount is added to 50 μM of purified HbS at a final DMSO concentration of 0.3%. Final potassium phosphate concentration is adjusted to 1.8 M using a combination of 2.5 M potassium phosphate stock solution and water at pH 7.4. The reaction mixture is incubated for an hour at 37° C. and then transferred into a 24-well plate for deoxygenation in a glove box containing 99.5% nitrogen and 0.5% oxygen. The 24-well plate is not covered and incubated at 4° C. on a plate cooler inside the glove box for one and a half hours. Fifty μl of the reaction mixture is transferred into a 96-well plate and the absorbance at 700 nm is measured every minute for one hour at 37° C. in a plate reader located inside the glove box. A plot of the absorbance against time is fitted using a Boltzman sigmoidal fit and the delay time (from zero to time at half Vmax) is measured. To compare and rank compounds, delay times are expressed as percent delay (% DT), which is defined as the difference in delay times for HbS/compound and HbS alone multiplied by 100 and divided by the delay time for HbS alone.
The ability of 5-HMF and compound 12 to delay HbS polymerization was evaluated as described in Example 2, above. Purified HbS (50 μM) was pre-incubated with 25 μM, 50 μM, or 100 μM of 5-HMF or compound 12, then passively de-oxygenated at 4° C. in 1.8 M potassium phosphate. Polymerization was induced via temperature jump from 4° C. to 37° C. Polymerization was quantified based on turbidity of the HbS solution under continued hypoxia.

[6] = read-out: Blood/plasma (Ratio of exposure AUCINF)
[7] = read-out: Blood/plasma (Ratio of peak concentration)

Hb in ODA (Δoxy state) (HbS [1]) | Whole Blood OEC (delta p50%) ([2]; [cmp] 1 mM) | Whole Blood OEC (delta p50%) ([2]; [cmp] 3 mM) | p50 [2] | Hb in ODA (Δoxy state) (HbS [4]) | R-T delta R (HbS/A; 9 μM compound) | R-T delta R (class) (HbS/A; 9 μM compound) | R-T delta R (HbS/A; 10 μM compound) | R-T delta R (class) (HbS/A; 10 μM compound) | level of compound in blood versus plasma, overall exposure [5] | relative proportion in blood (as compared to plasma) at peak concentration (Cmax) [5] | Vd [5] | bioavailability [5] | clearance [5] | blood plasma ratio [5, 6] | blood plasma ratio [5, 7] | Reverse Hemox delta p50% (class) [2] | Reverse Hemox delta p50% [2] | SMILES | Viscosity (ΔcP) ([3]; [cmp] 8 mM) | potency at increasing the oxygen affinity of HbS compared with 5-HMF (HbS [4]) | also measured
2 | 49% | 71% | 18 mm Hg | 10 |  |  |  |  |  |  |  |  |  |  |  |  |  | COc1cc(C=O)c(OCc2cccnc2-c2[nH]ncc2C)cn1 [Compound 5, 2-methoxy-5-[[2-(4-methyl-1H-pyrazol-5-yl)pyridin-3-yl]methoxy]pyridine-4-carbaldehyde] | >2.4 cP | more potent at increasing the oxygen affinity of HbS than 5-hydroxy furfural | p50 (washed red blood cells; washed RBCs, 1 mM compound, control 30 mm Hg): 9 mm Hg
6 | 63% | >80% | 11 mm Hg | 23 |  |  |  |  |  |  |  |  |  |  |  |  |  | COc1cc(C=O)c(OCc2cccnc2-c2ccnn2C(C)C)cn1 [Compound 9, 2-methoxy-5-[[2-(2-propan-2-ylpyrazol-3-yl)pyridin-3-yl]methoxy]pyridine-4-carbaldehyde] | >2.4 cP | more potent at increasing the oxygen affinity of HbS than 5-hydroxy furfural | Washed RBC OEC (delta p50%) (washed red blood cells; [Hb] 1 mM, [cmp] 1 mM): 69%; Viscosity (ΔcP) ([3]; [cmp] 1.6 mM): 2.3 cP
 |  |  |  |  | 31.02 | ++ (a delta R of between 30 and 50) | 36.25 | ++ (a delta R of between 30 and 50) | 5 fold | 5 fold | 3.1 L/kg | 6.6% | 9 mL/min/kg | 33 | 5 | +++ (a delta p50% of 50 or greater) | 68.69% | COc1cc(C=O)c(OCc2cccnc2-c2ccnn2CC(F)F)cn1 [Compound 22, 5-[[2-[2-(2,2-difluoroethyl)pyrazol-3-yl]pyridin-3-yl]methoxy]-2-methoxypyridine-4-carbaldehyde] |  |  | Polymerization % DT (class) (purified HbS): †† (activity >80% but ≦120%); Polymerization % DT (percent delay) (purified HbS): 90.22%
 |  |  |  |  | 37.15 | ++ (a delta R of between 30 and 50) | 51.55 | +++ (a delta R of 50 or greater) | 1 fold | 3 fold | 3.15 L/kg | 1.8% | 13.7 mL/min/kg | 4 | 1 | +++ (a delta p50% of 50 or greater) | 72.45% | COc1cc(C=O)c(OCc2cccnc2-c2ccccc2C)cn1 [Compound 23, 2-methoxy-5-[[2-(2-methylphenyl)pyridin-3-yl]methoxy] pyridine-4-carbaldehyde] |  |  | Polymerization % DT (class) (purified HbS): †† (activity >80% but ≦120%); Polymerization % DT (percent delay) (purified HbS): 98.19%
